According to patent US11951210B2, “Methods for making giant vesicles and their use” (THE JOHNS HOPKINS UNIVERSITY, priority 2017, dated 2024):

Biological target: FKBP (FK506 binding protein) and FRB (FKBP-rapamycin binding) protein (Homo sapiens, UniProt P42345+P62942)
Experiment: Chemically inducible dimerization (FKBP/FRB) protein translocation in GUVs on external rapamycin
Type: biochemical
Details: rapamycin added outside the vesicles
Excerpt: 3A) Schematic of the GUV containing fluorescently-labeled FK506 binding protein (FKBP) and FKBP-rapamycin binding (FRB) proteins. In this embodiment, FKBP peptide is fused to the positively charged myristoylated alanine-rich protein kinase c substrate (MARCKS) domain and binds to the negatively charged phosphatidylserine lipids present at the inner leaflet. The FKBP binding partner, FRB, is luminal. […] The normalized intensity profiles are the intensity traces of the dashed line in each image.
This was achieved by using the chemically inducible dimerization paradigm where FKBP (FK506 binding protein) and FRB (FKBP-rapamycin binding) protein can hetrodimerize in the presence of rapamycin.

Chain of FKBP (FK506 binding protein) and FRB (FKBP-rapamycin binding) protein (P62942 whole entry): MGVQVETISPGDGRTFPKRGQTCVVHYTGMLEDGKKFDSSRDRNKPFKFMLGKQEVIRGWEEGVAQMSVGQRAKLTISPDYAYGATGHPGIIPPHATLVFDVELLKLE
Chain of FKBP (FK506 binding protein) and FRB (FKBP-rapamycin binding) protein (P42345 2012-2144 limits assumed): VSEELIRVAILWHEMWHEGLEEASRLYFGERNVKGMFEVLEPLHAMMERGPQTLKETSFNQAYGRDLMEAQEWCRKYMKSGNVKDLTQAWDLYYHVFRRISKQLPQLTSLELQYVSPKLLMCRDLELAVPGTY

Structure (SMILES): CO[C@H]1C[C@@H]2CC[C@@H](C)[C@@](O)(O2)C(=O)C(=O)N2CCCC[C@H]2C(=O)O[C@H]([C@H](C)C[C@@H]2CC[C@@H](O)[C@H](OC)C2)CC(=O)[C@H](C)/C=C(\C)[C@@H](O)[C@@H](OC)C(=O)[C@H](C)C[C@H](C)/C=C/C=C/C=C/1C [rapamycin]
- Permeation of the GUV membrane: permeates the vesicles
